The source of these data is ChEMBL document CHEMBL4007488, “Amphiphilic Indole Derivatives as Antimycobacterial Agents: Structure-Activity Relationships and Membrane Targeting Properties” (J Med Chem, 2017).

For data set [1], the system named is Mycolicibacterium smegmatis. The data set is described as follows: Antimycobacterial activity against Mycobacterium smegmatis MC2 155 ATCC 700084 assessed as growth inhibition at 10 uM after 5 days relative to control. Type of data set: functional. Particulars: MC2 155 ATCC 700084, 120 h, read-out: GI.
Data set [2] relates to Lipid bilayer. As to the kind of experiment: Binding affinity to DMPG vesicles assessed as increase in width at 1/2 height of endotherm of compound containing vesicles by differential scanning calorimetric analysis. In general terms: DSC measures the heat that a sample takes up or gives off during a temperature scan.
Data set [3] has as its system Lipid bilayer. The data set is described as follows: Binding affinity to DMPG vesicles assessed as change in enthalpy by differential scanning calorimetric analysis.
In data set [4] the test system is Mycobacterium tuberculosis. As to the kind of experiment: Antimycobacterial activity against Mycobacterium tuberculosis H37Rv ATCC 27294 assessed as growth inhibition at 10 uM after 5 days relative to control. In kind it is functional. Conditions: H37Rv ATCC 27294, 120 h, read-out: GI.
In data set [5] the test system is Lipid bilayer. The data set is described as follows: Binding affinity to DMPG vesicles assessed as melting transition temperature by differential scanning calorimetric analysis (reference value: 21.09 to 23.32 degC).
The test system of data set [6] is Mycobacterium tuberculosis. The data set is described as follows: Antimycobacterial activity against Mycobacterium tuberculosis H37Rv ATCC 27294 after 5 days by broth dilution method. Conditions: H37Rv ATCC 27294, 120 h. Type of data set: functional. (In broth dilution the organism is exposed to a series of concentrations in liquid medium.)
Data set [7] relates to Vero C1008. The data set is described as follows: Cytotoxicity against African green monkey Vero E6 cells assessed as reduction in cell viability after 48 hrs by 96 aqueous one-based assay. Particulars: Chlorocebus sabaeus, Vero C1008, 48 h.
Data set [8] can be described thus: Selectivity index, ratio of IC50 for African green monkey Vero E6 cells to MIC50 for Mycobacterium tuberculosis H37Rv ATCC 27294. Type of data set: toxicity, Vero C1008. Particulars: read-out: Selectivity Index.
The nature of data set [9]: Selectivity index, ratio of IC50 for human HepG2 cells to MIC50 for Mycobacterium tuberculosis H37Rv ATCC 27294. Type of data set: toxicity. Conditions: read-out: Selectivity Index.
In data set [10] the test system is HepG2. The data set is described as follows: Cytotoxicity against human HepG2 cells assessed as reduction in cell viability after 48 hrs by MTT assay. In kind it is cell-based. Conditions: HepG2, 48 h.
The nature of data set [11]: Aqueous solubility of compound at pH 7.4 at 25 degC after 24 hrs. Type of data set: physicochemical. Particulars: buffer.

By MIC50 is commonly meant the lowest concentration that inhibits either 50% of growth or 50% of the strains tested, depending on the study. What is called MIC90 is the lowest concentration that inhibits either 90% of growth or 90% of the strains tested, depending on the study. By IC50 is commonly meant the point on the concentration scale where inhibition reaches its midpoint. In general, solubility refers to the concentration that dissolves in the medium under given conditions.

≈ marks a conversion by molar mass, not a printed value. Calls of active or inactive are those of the source. No cut-off for these calls is given here.

`CCCCCCCCCCn1cc(CN2CCCCCC2)c2c(F)cccc21`: the inhibition of growth at 10 µM in data set [1] and in [4] was 99% in each case. The result in data set [2] was inactive. Moreover, the deltaH in data set [3] is -0.963 kcal/mol. Moreover, the Tm in data set [5] was determined as 18.6 °C.
Take `CCCCCCCCn1cc(C(=O)N2CCCCCC2)c2cc(F)ccc21`: the inhibition of growth at 10 µM in [1] and in data set [4] was 99% each time. For the same compound, the outcome in data set [2] was inactive. In addition, the deltaH in [3] is -2.52 kcal/mol. In addition, the Tm in data set [5] was 18.9 °C.
In the case of `CCn1cc(CN2CCCCCC2)c2c(F)cccc21`, the inhibition of growth at 10 µM in data set [1] and in [4] was 99% throughout. For the same compound, the deltaH in data set [3] is -3.44 kcal/mol. The Tm in data set [5] worked out at 19.8 °C.
Consider `CCCCCCCCn1cc(CN2CCC3(CC2)OCCO3)c2c(F)cccc21`, for which the inhibition of growth at 10 µM in [1] and in data set [4] was 99% throughout. Further, in data set [6], the MIC50 was 5.3 µM (≈ 2.13 µg/mL). In data set [6], this compound showed an MIC90 of 10.6 µM (≈ 4.27 µg/mL). For the same compound, the results for the IC50 in data set [7] and in data set [10] were 38.9 µM and 21.8 µM, respectively. Besides, the deltaH in data set [3] is -1.7 kcal/mol. Also, the Tm in data set [5] turned out to be 19.4 °C. In addition, the selectivity ratio worked out at 7.3 in data set [8] and 4.1 in data set [9].
As for `CCCCCCCCCCCCn1cc(CN2CCCCCC2)c2c(F)cccc21`, the inhibition of growth at 10 µM in [1] and in data set [4] was 99% in each case. Moreover, the result in data set [2] was inactive. In data set [3], the deltaH is -0.44 kcal/mol. Besides, the Tm in [5] stood at 18.8 °C.
Consider `Fc1ccc2c(c1)c(CN1CCCCC1)cn2Cc1ccccc1`, for which the inhibition of growth at 10 µM in data set [1] and in data set [4] was 99% in each case.
With `CCCCCCCCn1cc(CN2CCCCCC2)c2cc(F)ccc21`, the inhibition of growth at 10 µM in data set [1] and in data set [4] was 99% in each case.
With `CCCCCCCCn1cc(CNCCC)c2cc(F)ccc21`, the inhibition of growth at 10 µM in [1] and in [4] was 99% throughout.
`Fc1ccc2c(c1)c(CN1CCCCC1)cn2CCCOc1ccccc1`: the inhibition of growth at 10 µM in data set [1] and in data set [4] was 99% each time.
For the compound `Fc1ccc2[nH]cc(CN3CCCCC3)c2c1`, the inhibition of growth at 10 µM in [1] and in data set [4] was 99% in each case.
Take `CC(C)=CCC/C(C)=C/Cn1cc(CN2CCS(=O)(=O)CC2)c2cc(F)ccc21`: the inhibition of growth at 10 µM in [1] and in [4] was 99% each time.
For the compound `CC(C)=CCC/C(C)=C/Cn1cc(C(=O)N2CCCCC2)c2cc(F)ccc21`, the inhibition of growth at 10 µM in [1] and in data set [4] was 99% in each case.
With `CCCN(C)Cc1cn(C/C=C(\C)CCC=C(C)C)c2ccc(F)cc12`, the inhibition of growth at 10 µM in data set [1] and in [4] was 99% throughout.
Take `CCCCCCCCn1cc(CN2CCC(C)CC2)c2cccc(OC)c21`: the inhibition of growth at 10 µM in data set [1] and in [4] was 99% throughout.
In the case of `CCCCCCCCn1cc(CN2CCCCCC2)c2c(OC)cccc21`, the inhibition of growth at 10 µM in data set [1] and in data set [4] was 99% each time.
As to `CCCCCCCCn1cc(CNC23CC4CC(CC(C4)C2)C3)c2cccc(OC)c21`, the inhibition of growth at 10 µM in [1] and in [4] was 99% in each case.
On to `CCCCCCCCn1cc(CN2CCC3(CC2)OCCO3)c2cccc(OC)c21`, for which the inhibition of growth at 10 µM in [1] and in data set [4] was 99% in each case.
`CCCCCCn1cc(CN2CCCCCC2)c2c(F)cccc21`: the inhibition of growth at 10 µM in [1] and in [4] was 99% in each case. Moreover, the deltaH in [3] is -1.52 kcal/mol. Also, in [5], the Tm is 19 °C.
Take `CCCCCCCCn1cc(CN2CCC3(CC2)OCCO3)c2cc(F)ccc21`: the inhibition of growth at 10 µM in [1] and in data set [4] was 99% throughout.
Regarding `CCCCNC(=O)Cn1cc(CN2CCCCC2)c2cc(F)ccc21`, the inhibition of growth at 10 µM in [1] and in [4] was 99% in each case.
As for `CCCCN(CCCC)Cc1cn(C/C=C(\C)CCC=C(C)C)c2ccc(F)cc12`, the inhibition of growth at 10 µM in data set [1] and in [4] was 99% throughout.
For the compound `CC(C)=CCC/C(C)=C/Cn1cc(CN(C)C)c2cc(F)ccc21`, the inhibition of growth at 10 µM in data set [1] and in data set [4] was 99% in each case.
With `CCCCCCCCn1cc(CN2CCC(C)CC2)c2cc(OC)ccc21`, the inhibition of growth at 10 µM in data set [1] and in [4] was 99% each time.
With `CCCCCCCCn1cc(CNC2CC2)c2cc(F)ccc21`, the inhibition of growth at 10 µM in data set [1] and in data set [4] was 99% each time.
Turning to `CCCCCCCCn1cc(CN2CCCCCC2)c2cccc(OC)c21`, the inhibition of growth at 10 µM in data set [1] and in data set [4] was 99% each time.
As for `CCCCCCCCn1cc(CN2CCCC2)c2cc(F)ccc21`, the inhibition of growth at 10 µM in [1] and in data set [4] was 99% each time.
Consider `CC(C)=CCC/C(C)=C/Cn1cc(CN2CCCCC2)c2cc(F)ccc21`, for which the inhibition of growth at 10 µM in data set [1] and in data set [4] was 99% throughout. The same compound returned a solubility at 24 h in data set [11] of 25 µM (≈ 9.21 µg/mL). The selectivity ratio in [8] amounted to 6.
Take `CCCCn1cc(CN2CCCCC2)c2cc(F)ccc21`: the inhibition of growth at 10 µM in data set [1] and in [4] was 99% in each case.
`Fc1cccc2[nH]cc(CN3CCCCCC3)c12`: the inhibition of growth at 10 µM in data set [1] and in data set [4] was 99% in each case. In data set [3], the deltaH was -4.83 kcal/mol. Besides, in data set [5], the Tm was 20.4 °C.
For `CCCCCCCCn1ccc2cc(F)ccc21`, the inhibition of growth at 10 µM in data set [1] and in [4] was 99% each time.
In the case of `CCCCCCCCn1cc(CNC23CC4CC(CC(C4)C2)C3)c2cc(F)ccc21`, the inhibition of growth at 10 µM in data set [1] and in [4] was 99% in each case.
Consider `CCCCCCCCn1cc(CNC23CC4CC(CC(C4)C2)C3)c2ccc(F)cc21`, for which the inhibition of growth at 10 µM in data set [1] and in data set [4] was 99% in each case.
As for `CCCCCCCCn1cc(CN(C)CCC)c2cc(F)ccc21`, the inhibition of growth at 10 µM in [1] and in data set [4] was 99% in each case.
For the compound `CC(C)=CCC/C(C)=C/Cn1cc(CN2CCCCC2)c2cc(Cl)ccc21`, the inhibition of growth at 10 µM in data set [1] and in data set [4] was 99% each time.
For `CCCCCCCCn1cc(CN2CCCCC2)c2c(F)cccc21`, the inhibition of growth at 10 µM in [1] and in data set [4] was 99% throughout.
On to `CCCCCCCCn1cc(CN2CCCCC2)c2ccc(F)cc21`, for which the inhibition of growth at 10 µM in [1] and in data set [4] was 99% throughout.
With `CC(C)=CCC/C(C)=C/Cn1cc(CNC2CCCCCC2)c2cc(F)ccc21`, the inhibition of growth at 10 µM in data set [1] and in [4] was 99% in each case.
Take `CCCCCCCCn1cc(CN2CCCCC2)c2cccc(F)c21`: the inhibition of growth at 10 µM in data set [1] and in [4] was 99% throughout.
Regarding `CCCCCCCCn1cc(CNC(C)C)c2cc(F)ccc21`, the inhibition of growth at 10 µM in [1] and in [4] was 99% each time.
In the case of `CC(C)=CCC/C(C)=C/Cn1cc(CN2CCCCC2)c2ccccc21`, the inhibition of growth at 10 µM in data set [1] and in data set [4] was 99% throughout.
Turning to `CCCCn1cc(CN2CCCCCC2)c2c(F)cccc21`, the inhibition of growth at 10 µM in [1] and in [4] was 99% throughout. Besides, the deltaH in data set [3] was -3.3 kcal/mol. In data set [5], the Tm came out at 19 °C.
Take `CCN(CC)Cc1cn(C/C=C(\C)CCC=C(C)C)c2ccc(F)cc12`: the inhibition of growth at 10 µM in data set [1] and in data set [4] was 99% in each case.
As for `CCCCCCCCn1cc(CN2CCCCC2)c2cc(Cl)ccc21`, the inhibition of growth at 10 µM in data set [1] and in data set [4] was 99% in each case.
Consider `CC(C)=CCC/C(C)=C/Cn1cc(CN2CCN(C)CC2)c2cc(F)ccc21`, for which the inhibition of growth at 10 µM in data set [1] and in [4] was 99% throughout.
Turning to `CCN1CCN(Cc2cn(C/C=C(\C)CCC=C(C)C)c3ccc(F)cc23)CC1`, the inhibition of growth at 10 µM in [1] and in data set [4] was 99% in each case.
With `CCCCCCCCn1cc(CN2CCCCC2)c2ccccc21`, the inhibition of growth at 10 µM in data set [1] and in data set [4] was 99% each time.
On to `CC(C)=CCC/C(C)=C/Cn1cc(CN2CCC(C)CC2)c2cc(F)ccc21`, for which the inhibition of growth at 10 µM in [1] and in [4] was 99% throughout.
Consider `CCCCCCCCn1cc(CN2CCC3(CC2)OCCO3)c2ccc(F)cc21`, for which the inhibition of growth at 10 µM in data set [1] and in [4] was 99% throughout. For the same compound, the MIC50 in [6] amounted to 3 µM (≈ 1.21 µg/mL). Moreover, the MIC90 in data set [6] amounted to 6 µM (≈ 2.42 µg/mL). Also, the IC50 in data set [7] was 47.5 µM; in [10], 25.5 µM. For the same compound, in data set [3], the deltaH was -2.15 kcal/mol. The Tm in data set [5] was determined as 18.5 °C. Besides, the selectivity ratio in data set [8] came to 15.8; in data set [9], 8.5.
As to `CCCCCCCCn1cc(CNC2CCCCCC2)c2cc(F)ccc21`, the inhibition of growth at 10 µM in data set [1] and in data set [4] was 99% throughout.
Regarding `CCCCCCCCn1cc(CN2CCCCC2)c2cc(F)ccc21`, the inhibition of growth at 10 µM in [1] and in [4] was 99% each time.
